Test results reported in patent US11378572B2, “Therapeutic agent for immune cell migration-caused disease and method for screening same” (ZYMEDI CO., LTD., priority 2017, dated 2022).

What was measured:
[1] = test system: Dahl salt-sensitive (SS) rats; test: Dahl salt-sensitive (SS) rat on high salt diet; type: in vivo
Protocol: Experiments were performed using male Dahl SS rats at 9-12 weeks of age. These animals were provided by the University of Mississippi Medical Center and approved by the American Association for Accreditation of Laboratory Animal Care (AAALAC). All protocols were approved by the Institutional Animal Care and Use Committee of the University of Mississippi Medical Center. Rats were fed ad libitum, and these rats were provided with a purified AIN-76 rodent feed containing 0.4% NaCl (Dyets, Bethlehem, Pa.) after weaning. Dahl salt-sensitive (SS) rat is an animal model that rapidly develops high hypertension, proteinuria, glomerulosclerosis and renal interstitial fibrosis on high salt (HS) diet.
Dahl SS rats were anesthetized with isoflurane and telemetry transmitters (model TA11PAC40, Data Sciences International, St. Paul, Minn.) were aseptically implanted in the same manner as described above. After surgery, rats were housed in individual cages in a quiet air-conditioned room environment with a 12:12 hour light-dark cycle and it took a week to fully recover from surgery. Then, the baseline mean arterial blood pressure (MAP) was measured before the rats were placed in the metabolic cage to measure urine protein excretion. Proteinuria was measured using the Bradford method and BSA (Bio-Rad Laboratories, Hercules, Calif.) as a standard.
Rats were then randomly divided into two experimental groups: Group 1 (n=15) was treated with BC-KI-00053 (25 mg/kg daily) by gastrointestinal gavage; Group 2 (n=15) was administered by gastrointestinal gavage with the same volume (2.5 ml/kg per day) of vehicle (corn oil, polyethylene glycol 400, Tween 80 and methyl cellulose). Simultaneously with the administration of agents, feed was changed to HS feed containing 8% NaCl (Dyets, Bethlehem, Pa.) and blood pressure and proteinuria were measured at 7, 14 and 21 days after starting HS feed. At the end of the experiment, rats were anesthetized with isoflurane and blood samples were taken to measure creatinine levels. Rats were then flushed with 50 ml of 0.9% NaCl through the aorta and perfused with 20 ml of 4% paraformaldehyde. Kidneys and hearts were collected for histological evaluation.
Paraffin section preparation and evaluations of the degree of glomerular damage, cortex and medulla fibrosis were performed as described above. In addition, immunohistochemical staining (IHC) for CD68, a monocyte/macrophage marker for kidney tissue, was performed in the same manner as in Example 8.
Statistics: Each data is expressed as mean±SEM. Comparison between groups was analyzed by two-tailed test. P value p<0.05 was considered statistically significant.

[2] = test system: FHH rats with superimposed hypertension; test: FHH rat with superimposed hypertension (uninephrectomy, DOCA, 1% NaCl); type: in vivo
Protocol: Experiments were performed using male FHH rats of 9-12 weeks of age. These animals were provided by the University of Mississippi Medical Center and approved by the American Association for Accreditation of Laboratory Animal Care (AAALAC). All protocols were approved by the Institutional Animal Care and Use Committee of the University of Mississippi Medical Center. Rats were fed ad libitum, and provided with a purified AIN-76 rodent feed containing 0.4% NaCl (Dyets, Bethlehem, Pa.) after weaning. Fawn-hooded hypertensive (FHH) rat is a genetic model of spontaneous hypertension associated with glomerular hyperfiltration and proteinuria. In order to promote glomerular damage in this rat, DOCA strips were implanted after single (one) kidney extraction.
Specifically, FHH rats were anesthetized with isoflurane and telemetry transmitters (model TA11PAC40, Data Sciences International, St. Paul, Minn.) were implanted as described in ‘Williams, J. M. et al. […] Regul Integr Comp Physiol (2012)’. Briefly, surgery was performed under 2% to 3% isoflurane-O2, and the catheter of the device was inserted into the left femoral artery and guided upstream to the aorta. Body part of the telemetry unit was placed in the lateral cavity of the left leg and sutured with muscle tissue. Skin was then closed. To prevent infection, animals were given Baytril (10 mg/kg) and Rimadyl (5 mg/kg), a long-acting analgesic to control surgical pain. After surgery, rats were housed in individual cages in a quiet air-conditioned room environment with a 12:12 hour light-dark cycle and it took a week to fully recover from surgery. Thereafter, the basic mean arterial blood pressure (MAP) and proteinuria were measured for 4 hours (10 am to […]) before the rats were housed in the metabolic cage. Proteinuria was measured using the Bradford method and BSA (Bio-Rad Laboratories, Hercules, Calif.) as a standard.
One week after the transmitter insertion, rats were uninephrectomized as described in Wang, X. et al. Am J Physiol Renal Physiol (2016). Briefly, rats were anesthetized with 2-3% isoflurane-O2 and the right flank was dissected in aseptic condition. The right kidney was gently lifted and threaded tightly around the renal vessels and ureters. The right kidney was extracted by cutting the distal ends of the renal vessels and ureters. The incision was closed with a continuous subcutaneous stitch, after which the skin was further closed. After the rat's right kidney was removed, DOCA pellets (200 mg, Innovative Research of America) was subcutaneously implanted in the neck.
After single kidney extraction and DOCA transplant surgery, rats had recovery time for 3 days. Rats were provided with water containing 1% NaCl in place of distilled water, and randomly divided into two groups: Group 1 (n=15) was administered with BC-KI-00053 (25 mg/kg daily) by gastrointestinal gavage; Group 2 (n=15) was administered with the same volume (2.5 ml/kg daily) of vehicle (corn oil, polyethylene glycol 400, Tween 80 and methylcellulose) by gastrointestinal gavage. Blood pressure and proteinuria were measured weekly for 3 weeks in the experimental group. At the end of the experiment, rats were anesthetized with isoflurane and blood samples were taken to measure creatinine levels. Rats were then flushed with 50 ml of 0.9% NaCl through aorta and perfused with 20 ml of 4% paraformaldehyde. Kidneys and hearts were collected for histological evaluation.
Paraffin sections prepared with a thickness of […] were stained with Masson's trichrome to measure the degree of glomerular damage and renal interstitial fibrosis. Images were obtained using a Nikon Eclipse 55i microscope and NIS-Elements D 3.0 software equipped with Nikon DS-Fil color camera (Nikon, Melville, N.Y.). The degree of glomerular damage was assessed by the blinded experimenter, rating from 0 to 4+ for 30-40 […]. […]

[3] = 25 mg/kg daily 3 weeks, score 0 to 4+
[4] = 25 mg/kg daily, end of experiment
[5] = 25 mg/kg daily 3 weeks, Masson's trichrome
[6] = 25 mg/kg daily, after two weeks of treatment
[7] = basal, before treatment, mean±SEM

`COc1ccc(CCN(Cc2ccc(C(=O)O)cc2)c2nc3cccc(F)c3s2)cc1` [BC-KI-00053, 4-({(7-fluorobenzo[d]thiazol-2-yl)[2-(4-methoxyphenyl)ethyl]amino}methyl)benzoic acid] was tested, and the cortical fibrosis ([1]; 25 mg/kg daily 3 weeks) was 6.47±0.46%, the renal medulla fibrosis ([1]; 25 mg/kg daily 3 weeks) was 12.33±0.78% and the “renal tissue infiltration of monocytes/macrophages (CD68 IHC)” value ([1]; 25 mg/kg daily 3 weeks) was “significantly reduced”. The cardiac fibrosis ([1]; 25 mg/kg daily 3 weeks, Sirius red) was 6.63±0.94%, the “mean glomerular injury score” value [1, 3] was 1.34±0.04 and the “body weight during the study period” value ([1]; 25 mg/kg daily gavage, 3 weeks) was “maintained or increased slightly”. For the same molecule, the MAP ([1]; 25 mg/kg daily, after 2 weeks of treatment, HS diet) was 164.43±3.00 mmHg, the proteinuria ([1]; 25 mg/kg daily, after one week of treatment, HS diet) was 302.86 ± 29.76 mg/day and the proteinuria ([1]; 25 mg/kg daily, after two weeks of treatment, HS diet) was 510.64 ± 42.42 mg/day. For the same molecule, the plasma creatinine concentration [1, 4] was 0.55 ± 0.01 mg/dL, the proteinuria ([1]; 25 mg/kg daily, end of study, HS diet) was 524.55 ± 44.70 mg/day and the MAP ([1]; 25 mg/kg daily, study completed (21 days), HS diet) was 178.48±3.49 mmHg. It also gave an MAP ([1]; baseline, before treatment) of 123.45±2.36 mmHg, a proteinuria ([1]; baseline, before treatment) of 113.27 ± 8.06 mg/day and a baseline body weight ([1]; baseline, before treatment, mean±SEM) of 350.13 ± 9.173 g. For the same molecule, the “renal tissue infiltration of monocytes/macrophages (CD68 IHC)” value ([2]; 25 mg/kg daily 3 weeks) was “significantly reduced”, the cortical fibrosis [2, 5] was 5.79±0.48% and the renal medulla fibrosis [2, 5] was 7.40±0.56%. The cardiac fibrosis ([2]; 25 mg/kg daily 3 weeks, Sirius red, right ventricular insertion point) was 9.14±2.18%, the “mean glomerular injury score” value [2, 3] was 1.49±0.05 and the “body weight reduction during the study period” value ([2]; 25 mg/kg daily gavage, 3 weeks) was “approximately 10%”. The MAP ([2]; 25 mg/kg daily, after one week of treatment) was 174.4±3.83 mmHg, the MAP [2, 6] was 168.8±3.74 mmHg and the proteinuria [2, 6] was 285.5 ± 47.48 mg/day. The plasma creatinine concentration [2, 4] was 0.48 ± 0.02 mg/dL, the proteinuria ([2]; 25 mg/kg daily, study completed (3 weeks)) was 433.1 ± 60.59 mg/day and the MAP ([2]; 25 mg/kg daily, three weeks) was 176.9±5.83 mmHg. For the same molecule, the MAP [2, 7] was 120.1±0.62 mmHg, the basal body weight [2, 7] was 304.7 ± 5.39 g and the proteinuria ([2]; baseline, before treatment) was 51.0 ± 4.9 mg/day.
